Results on 2 substances are retold here after US11034728B2, “Peptides for binding epidermal growth factor” (3M INNOVATIVE PROPERTIES COMPANY, priority 2016, dated 2021).

Ends that are not written are not given here.

In general, Kd refers to the concentration at which binding is half-saturated.

In assay [1] the target is T1, EGF (Homo sapiens, UniProt P01133). Put plainly: biochemical. The note with it: binding affinity (KD) for EGF, linker modified peptide immobilized on CM5 chip, Biacore 3000, 25° C., HBS-EP, EGF 62.5-1000 nM, 1-to-1 Langmuir fit. (In general: Surface plasmon resonance follows binding to a sensor surface in real time, without labels.)
T1 sequence (P01133 971-1023 limits assumed): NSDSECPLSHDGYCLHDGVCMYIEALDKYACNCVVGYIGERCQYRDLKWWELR
Protocol: “Test Method A” refers to the following general surface plasmon resonance (SPR) binding assay. Target protein (e.g., EGF and TNF-□) is immobilized at 25° C. and diluted peptides are injected for 3 min at a flow rate of 10 μl/min at 25° C. Binding assay is performed according to detailed Test method A in Examples.
The following Test Method A was used for determining the binding affinity (KD) of SEQ ID NO: 1 for EGF and TNF-□□ Binding experiments were performed using Biacore 3000 optical biosensors equipped with research-grade CM5 sensor chips (GE Healthcare Bio-Sciences Corporation). The reagents used for the amine-coupling steps [(1-ethyl-3-(3-dimethylaminopropyl)-carbodiimide (EDC); N-hydroxysuccinimide (NHS); and ethanolamine hydrochloride-NaOH (1 M, pH 8.5)] were obtained from GE Healthcare Bio-Sciences Corporation. In order to efficiently immobilize the peptide on the sensor chips, a modified version of SEQ ID NO:1 was prepared by SPPS in which a “CK” amino acid linker sequence was added to the N-terminal end of the SEQ ID NO: 1 peptide (i.e. linker modified version of SEQ ID NO: 1 for immobilization being [sequence]). A standard coupling protocol was employed to immobilize the linker modified version of SEQ ID NO: 1 via the lysine residues. The immobilization was performed at 25° C. using HBS-EP as the running buffer. […]
Assay [2] has as its target T1, EGF. Put plainly: Dot blotting analysis, EGF spotted on membrane, probed with biotinylated peptide and Streptavidin-HRP. Further details: Recombinant Human Epidermal Growth Factor (EGF); purchased Abcam plc, Cambridge, Mass. The settings on record: EGF 10 nM spotted; biotinylated peptide 10 ng/mL; Streptavidin-HRP, TMB. The assay is classed as binding. Here is the method: EGF (1 microliter of a 10 nM solution in PBS was spotted a nitrocellulose membrane (obtained from Thermo Fisher Scientific) and the membrane was dried in air for about 30 minutes. The membrane was then incubated in 15 mL of blocking buffer (3 wt. % BSA in PBS) for one hour at room temperature. The membrane was washed three times (15 minutes for each wash) with 15 mL portions of fresh PBST. The washed membrane was incubated with Biotinylated SEQ ID NO: 1 [10 mL of a 10 ng/mL solution in blocking buffer (3 wt. % BSA in PBS)] with gentle agitation for one hour. The membrane was again washed three times (15 minutes for each wash) with 15 mL portions of fresh PBST. The washed membrane was incubated with Streptavidin-HRP [1:5000 dilution in 10 mL of the blocking buffer (3 wt. % BSA in PBS)] for 30 minutes with gentle agitation. Following the incubation, the membrane was washed three times (15 minutes for each wash) with 15 mL portions of fresh PBST. The washed membrane was incubated with 10 mL of the development solution for horseradish peroxidase (TMB-Blotting Substrate Solution, Pierce-Fisher Scientific) with gentle agitation. The color development was stopped by adding water.

In the case of “Ac-YVSPGMKNVNWWSHWWHATD-NH2 [SEQ ID NO: 1]”, binding at EGF [1] was put at a Kd of 0.7 µM. Take “Biotinylated SEQ ID NO: 1: Biotinylated version of peptide SEQ ID NO: 1, obtained from GenScript (YVSPGMKNVNWWSHWWHATD; also: biotinylated, place not given here)”: the “Dot blot colour development at EGF application site (affinity for EGF)” value in the assay with EGF [2] is on record as “A dark spot developed”.
